In data set [1] the test system is PR3. The experiment in a line: RT-PCR / real-time qPCR of PR3 after foliar spray. The data set is classed as in vivo, Oryza sativa L. To be noted: for PR3 expression induction: 1 mM BTH. The source says:
(§1) To investigate the BTH- and INA-induced responses at the molecular level, we looked at the transcript expression levels of several rice defense-related genes, including PR1a, PR3, PR10, POX (peroxidase), and NH1. RT-PCR results of these genes for response to BTH treatment are shown in FIG. 5a and real-time quantitative PCR results in FIG. 5b. The input cDNA amounts were equalized first by using actin as the reference in FIG. 5a. Quantitative expression data in FIG. 5b are expressed as fold of actin gene expression. As expected, the NH3 levels in the nNT-NH3 plants (filled bar) are elevated by about 3- to 4-fold compared to Kit (open bar) control before treatment. […] Mock treatment appears also has effects on the NH3 levels.
(§2) For 10 mM BTH treatment, the commercial product Actigard (Syngenta) was first used for foliar spray on the rice plants. Pure BTH chemical […] (Wako) was subsequently used in place of Actigard. One mM of BTH and INA solutions were prepared in 0.05% Tween 20 for foliar spray.
(§3) Leaf samples were collected and frozen immediately in liquid nitrogen. Leaf samples were stored at −80° C. until use. Total RNA was extracted using the Trizol reagent (Sigma) according to the manufacturer's instruction. RNA was reverse-transcribed using reverse transcriptase Superscript (Invitrogen). Approximately 10 μg of RNA was used for each reverse transcription. RT-PCR was first performed with primers targeting an actin gene as the reference. An equal amount of cDNA input was then used for RT-PCR for NH3 or defense-related genes. RT-PCR for NH3 used primers NH3-RT1 (5′[…]3′; SEQ ID NO:29) and NH3-RT2 (5′[…]3; SEQ ID NO:30). RT-PCR for NTAP-NH3 used primers NH3-2 (5′[…]3; SEQ ID NO:31) and NTAP-5 (5′[…]3; SEQ ID NO:32). RT-PCR for NH1 used primers NH1-RT1 (5′[…]3; SEQ ID NO:33) and NH1-TAP2 (5′[…]3; SEQ ID NO:34). Genes PR1a (Os07g03710) and PR10 (Os12g36830) as markers for plants defense have been described before (Park et al., 2008).
(§4) Quantitative real time PCR were performed on a Bio-Rad CFX96 Real-Time System coupled to a C1000 Thermal Cycler (Bio-Rad). […]
A general note: In qPCR the cycle at which signal appears reflects the starting amount.

For data set [2], the system named is PR10. The experiment in a line: RT-PCR / real-time qPCR of PR10 after foliar spray. The class given is in vivo, Oryza sativa L.
Description: as §1, §2, §3
Quantitative real time PCR were performed on a Bio-Rad CFX96 Real-Time System coupled to a C1000 Thermal Cycler (Bio-Rad). For qPCR reactions, the Bio-Rad SsoFast EvaGreen Supermix was used. QPCR primers used are as follows: Actin-Q1 ([…]; SEQ ID NO:35) and Actin-Q2 ([…]; SEQ ID NO:36) for actin gene; NH1-RT3 (CTGATCCGTTTCCCTCGGA; SEQ ID NO:37) and NH1-RT4 ([…]; SEQ ID NO:38) for the NH1 gene; NH3-RT3 ([…]; SEQ ID NO:39) and NH3-RT4 ([…]; SEQ ID NO:40) for the NH3 gene; PR3-1 ([…]; SEQ ID NO:41) and PR3-2 ([…]; SEQ ID NO:42) for the PR3 gene; POX8.1-1 ([…]; SEQ ID NO:43) and POX8.1-2 (CATGGGCTTCCTGATCTG; SEQ ID NO:44) for the POX8.1 gene; and POX22.3-1 (ATCGTGTCGACGACGACAT; SEQ ID NO:45) and POX22.3-2 ([…]; SEQ ID NO:46) for the POX22.3 gene. QPCR reactions were run at 56° C. annealing for 12 sec and 95° C. for 8 sec for 40 cycles.

For data set [3], the system named is NH1. Description: RT-PCR / real-time qPCR of NH1 after foliar spray. The class given is in vivo, Oryza sativa L. The note with it: 1 mM BTH.
Description: as §1, §2, §3, §4

For data set [4], the system named is NH3. The experiment in a line: RT-PCR / real-time qPCR of NH3 after foliar spray. The class given is in vivo, Oryza sativa L.
Description: as §1, §2, §3, §4

Data set [5] has as its system peroxidase genes POX8.1 and POX22.3. The experiment in a line: RT-PCR / real-time qPCR of peroxidase genes after foliar spray. The data set is classed as in vivo, Oryza sativa L.
Description: as §1, §2, §3, §4

Data set [6] has as its system rice plants (nNT-NH3, NTAP control, Kit). The note with it: for lesion mimic spots / bleached areas on leaves: 1 mM foliar spray, one week.
In data set [7] the test system is PR1a. The experiment in a line: RT-PCR / real-time qPCR of PR1a after foliar spray. The class given is in vivo, Oryza sativa L. To be noted: 1 mM INA, Kit plants.
Description: as §1, §2
Leaf samples were collected and frozen immediately in liquid nitrogen. Leaf samples were stored at −80° C. until use. Total RNA was extracted using the Trizol reagent (Sigma) according to the manufacturer's instruction. […]
as §4

Setting [8] is: 1 mM BTH, both Kit and nNT-NH3 plants.

The structures appear in SMILES notation. Read-outs that look alike come from different tables or passages of the source.

Turning to `c1ccc2snnc2c1` [BTH, benzothiadiazole], in data set [1] (Kit plants), the PR3 expression induction result is given as “up to 2 fold”. Moreover, the PR3 expression induction result in data set [1] (nNT-NH3 plants) was “up to 10 fold”. Further, in data set [2] (1 mM BTH, Kit plants), the PR10 expression induction entry is reported as “up to 2 fold”. Further, in data set [2] (1 mM BTH, nNT-NH3 plants), the “PR10 expression induction over untreated Kit” value is recorded as at most 12 fold and the “PR10 expression induction over untreated nNT-NH3” value is “up to 51 fold”. The NH1 expression levels result in data set [3] (Kit plants) is “relatively unchanged”. The “NH1 level induction compared to untreated Kit” value in data set [3] (nNT-NH3 plants, one day after treatment) came out at 2 fold. The NH1 level induction entry in data set [3] (nNT-NH3 plants, one day after treatment, vs untreated nNT-NH3) is listed as “about 3.5 fold”. Also, the NH3 transcript levels result in data set [4] (1 mM BTH, Kit control plants, especially day 4 and day 8) is “slightly reduced”. The NH3 levels entry in data set [4] (1 mM BTH, nNT-NH3 plants) is reported as “further modestly induced at day 1”. Further, in data set [5] (setting [8]), the POX8.1 expression result is on record as “significantly induces” and the POX22.3 expression result is “significantly induces”. The “lesion mimic spots / bleached areas on leaves” value in data set [6] (Kit control plants) is listed as “developed no lesion mimic spots at all”. In data set [6] (10 mM foliar spray, NTAP control plants (Ubi-1 promoter)), the cell death phenotype result is listed as “completely clear of such cell death phenotype”. Further, the “time to dry-out of whole leaves” value in data set [6] (10 mM foliar spray, nNT-NH3 plants) was in the range of 3 to 4 days.
In the case of `O=C(O)c1cc(Cl)nc(Cl)c1` [INA, 2,6-dichloroisonicotinic acid], in data set [7], the PR1a expression entry is “slightly induces”. In data set [1] (1 mM INA, Kit plants), the PR3 expression entry is listed as “slightly induces”. Also, in data set [2] (1 mM INA, Kit plants), the PR10 expression result is reported as “slightly induces”. Moreover, the “levels of NH3 expression” value in data set [4] (1 mM INA) was “slightly reduces”. In addition, the POX expression result in data set [5] (1 mM INA, Kit and nNT-NH3 plants) is “induces”. Also, the “lesion mimic spots / bleached areas on leaves” value in data set [6] (Kit control plants) is “little effects”; in data set [6] (nNT-NH3 plants) it was “developed typical lesion-mimic spots, but no bleached areas on leaves”.
